From patent publication US6107292A, “Indenoindoles and benzocarbazoles as estrogenic agents” (American Home Products Corporation, priority 2000, dated 2000)

Experiments:
[1] = target: T1, human estrogen receptor (Homo sapiens, UniProt P03372); experiment: 2×VIT ERE Infection Assay (luciferase); type: cell-based; conditions: CHO, 24 h; for Emax at 1 µM: read-out: Infection Luciferase Activity, 1 uM; for activity at 1 µM: read-out: Infection Luciferase Activity, 1 uM + 17β estradiol
T1 construct: expressed in transfected cells; host or cells: Chinese Hamster Ovary (CHO) cells, stably transfected
Description: Chinese Hamster Ovary cells (CHO) which had been stably transfected with the human estrogen receptor were maintained in DMEM+10% fetal bovine serum (FBS). 48h prior to treatment the growth medium was replaced with DMEM lacking phenol red+10% dextran coated charcoal stripped FBS (treatment medium). Cells were plated at a density of 5000 cells/well in 96-well plates containing 200 μL of medium/well.
Reporter DNA (Promega plasmid pGL2 containing two tandem copies of the vitellogenin ERE in front of the minimal thymidine kinase promoter driving the luciferase gene) was combined with the B-galactosidase expression plasmid pCH 110 (Pharmacia) and carrier DNA (pTZ18U) in the following ratio:
20 uG of DNA1 mL of transfection solution
The DNA (20uG) was dissolved in 500 uL of 250 mM sterile CaCl2 and added dropwise to 500 uL of 2×HeBS (0.28 M NaCl, 50 mM HEPES, 1.5 mM Na2 HPO4, pH 7.05) and incubated at room temperature for 20 minutes. 20 uL of this mixture was added to each well of cells and remained on the cells for 16 h. […] Each treatment condition was performed on 8 wells (n=8) which were incubated for 24 h prior to the luciferase assay.
After 24 h exposure to compounds, the media was removed and each well washed 2× with 125 uL of PBS lacking Mg^++ and Ca^++. After removing the PBS, 25 uL of Promega lysis buffer was added to each well and allowed to stand at room temperature for 15 min, followed by 15 min at -80° C. and 15 min at 37° C. 20 uL of lysate was transferred to an opaque 96 well plate for luciferase activity evaluation and the remaining lysate (5 uL) was used for the B-galactosidase activity evaluation (normalize transfection). The luciferan substrate (Promega) was added in 100 uL aliquots to each well automatically by the luminometer and the light produced (relative light units) was read 10 seconds after addition.
To the remaining 5 uL of lysate 45 uL of PBS was added. Then 50 uL of Promega B-galactosidase 2× assay buffer was added, mixed well and incubated at 37° C. for 1 hour. A plate containing a standard curve (0.1 to 1.5 milliunits in triplicate) was set up for each experimental run. The plates were analyzed on a Molecular Devices spectrophotometric plate reader at 410 nm. The optical densities for the unknown were converted to milliunits of activity by mathematical extrapolation from the standard curve.
The luciferase data was generated as relative light units (RLUs) accumulated during a 10 second measurement and automatically transferred to a JMP (SAS Inc) file where background RLUs were subtracted. The B-galactosidase values were automatically imported into the file and these values were divided into the RLUs to normalize the data. The mean and standard deviations were determined from a n=8 for each treatment.

[2] = target: T2, estrogen receptor (Homo sapiens, UniProt P03372); experiment: In vitro Estrogen Receptor Binding Assay; conditions: comparison / general statement in words
T2 construct: made in house; host or cells: CHO cells overexpressing the receptor; 100,000 g cytosol
T2 sequence (P03372 1-595): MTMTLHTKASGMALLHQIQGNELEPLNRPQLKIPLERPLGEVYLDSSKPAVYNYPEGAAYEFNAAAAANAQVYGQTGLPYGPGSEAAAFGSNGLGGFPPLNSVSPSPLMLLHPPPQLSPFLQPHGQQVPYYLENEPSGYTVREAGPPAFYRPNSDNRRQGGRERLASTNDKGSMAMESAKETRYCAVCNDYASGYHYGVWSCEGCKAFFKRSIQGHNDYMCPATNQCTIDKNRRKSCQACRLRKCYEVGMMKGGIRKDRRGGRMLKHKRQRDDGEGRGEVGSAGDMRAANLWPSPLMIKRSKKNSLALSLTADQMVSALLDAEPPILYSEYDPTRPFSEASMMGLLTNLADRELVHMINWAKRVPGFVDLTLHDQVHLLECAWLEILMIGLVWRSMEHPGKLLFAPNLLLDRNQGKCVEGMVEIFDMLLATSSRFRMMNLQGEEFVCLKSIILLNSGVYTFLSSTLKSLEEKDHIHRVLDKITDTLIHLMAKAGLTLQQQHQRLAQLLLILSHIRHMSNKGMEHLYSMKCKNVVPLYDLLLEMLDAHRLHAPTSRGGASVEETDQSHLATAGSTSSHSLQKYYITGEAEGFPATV
Description: CHO cells overexpressing the estrogen receptor were grown in 150 mm^2 dishes in DMEM+10% dextran coated charcoal, stripped fetal bovine serum. The plates were washed twice with PBS and once with 10 mM Tris-HCl, pH 7.4, 1 mM EDTA. Cells were harvested by scraping the surface and then the cell suspension was placed on ice. Cells were disrupted with a hand-held motorized tissue grinder using two, 10-second bursts. The crude preparation was centrifuged at 12,000 g for 20 minutes followed by a 60 minute spin at 100,000 g to produce a ribosome free cytosol. The cytosol was then frozen and stored at -80° C. Protein concentration of the cytosol was estimated using the BCA assay with reference standard protein.
The competition assay was performed in a 96-well plate (polystyrene*) which binds <2.0% of the total input [^3 H]-17β-estradiol and each data point was gathered in triplicate. 100 uG/100 uL of the receptor preparation was aliquoted per well. A saturating dose of 2.5 nM [^3 H] […] Samples were counted to 2% or 10 minutes, whichever occurs first. […] Also, wells containing radioactivity but no cytosol were processed with charcoal to estimate unremovable DPM of [^3 H] […]
Counts per minute (CPM) of radioactivity were automatically converted to disintegrated per minute (DPM) by the Beckman LS 7500 Scintillation Counter using a set of quenched standards to generate a H# for each sample. […]

[3] = tested on: uterus; conditions: ovariectomized rat; versus Tamoxifen; cited from earlier work
[4] = tested on: bone; conditions: ovariectomized rat; cited from earlier work
[5] = tested on: bone; conditions: humans; cited from earlier work
[6] = tested on: uterus; conditions: in vivo; cited from earlier work

| Compound | Emax at 1 µM [1] | activity at 1 µM [1] | binding to the ER receptor (in words) [2] | also measured |
| --- | --- | --- | --- | --- |
| COc1ccc2c(c1)Cc1c-2n(Cc2ccc(OCCN3CCCCC3)cc2)c2ccc(O)cc12 [Example 4, 2-Methoxy-5-[4-(2-piperidin-1-yl-ethoxy)-benzyl]-5,10-dihydro-indeno[1,2-b]lindol-8ol] | -2% | 83% |  |  |
| COc1ccc2c(c1)CCc1c-2n(Cc2ccc(OCCN3CCCCC3)cc2)c2ccc(O)cc12 [Example 13, 3-Methoxy-11-[4-(2-piperidin-1-yl-ethoxy)-benzyl]-5,11-dihydro-6H-benzof[a]carbazol-8-ol] | -7% | 1% | bind better to the ER receptor than the indenoindole #6 |  |
| COc1ccc2c(c1)CCc1c-2n(Cc2ccc(OCCN3CCCCCC3)cc2)c2ccc(O)cc12 [Example 14, 11-[4-(2-Azepan-1-yl-ethoxy)-benzyl]-3-methoxy-5,11-dihydro-6H-benzo[a]carbazol-8-ol] | 1% | 8% | bind better to the ER receptor than the indenoindole #6 |  |
| O=C(c1ccc(OCCN2CCCCC2)cc1)c1c(-c2ccc(O)cc2)sc2cc(O)ccc12 [Raloxifene] |  |  |  | uterine growth [3]: stimulate uterine growth in the ovariectornized rat to a lesser extent than Tamoxifen; ability to spare bone / bone mass [4]: maintaining the ability to spare bone |
| CC/C(=C(\c1ccccc1)c1ccc(OCCN(C)C)cc1)c1ccccc1 [tamoxifen] |  |  |  | effect on the bone [5]: estrogen agonist-like effect on the bone; agonism in the uterus [6]: partial agonist in the uterus |
